For ten compounds, IC50 and Activity results are on record in ChEMBL document CHEMBL6127041, “Dual-target inhibitors based on acetylcholinesterase: Novel agents for Alzheimer's disease” (Eur J Med Chem, 2024).

In assay [1] the target is T1, Acetylcholinesterase (Homo sapiens, UniProt P22303). The assay is described as follows: Inhibition of AChE (unknown origin).
In assay [2] the target is T2, Amine oxidase [flavin-containing] B (Homo sapiens, UniProt P27338).
T2 sequence (P27338 whole entry): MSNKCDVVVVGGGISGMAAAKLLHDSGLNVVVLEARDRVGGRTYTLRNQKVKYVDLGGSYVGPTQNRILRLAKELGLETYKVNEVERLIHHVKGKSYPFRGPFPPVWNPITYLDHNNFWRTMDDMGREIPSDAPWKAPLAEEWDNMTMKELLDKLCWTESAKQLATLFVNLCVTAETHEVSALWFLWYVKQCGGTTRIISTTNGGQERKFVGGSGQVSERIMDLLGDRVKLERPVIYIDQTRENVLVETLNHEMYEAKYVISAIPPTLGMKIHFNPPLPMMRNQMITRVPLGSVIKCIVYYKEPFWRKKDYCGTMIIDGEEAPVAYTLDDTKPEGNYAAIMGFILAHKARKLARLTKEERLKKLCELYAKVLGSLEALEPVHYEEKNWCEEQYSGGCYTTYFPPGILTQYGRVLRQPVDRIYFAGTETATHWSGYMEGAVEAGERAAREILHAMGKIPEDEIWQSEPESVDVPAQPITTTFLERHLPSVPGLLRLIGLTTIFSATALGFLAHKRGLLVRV
The assay is described as follows: Inhibition of human MAO-B using Tyramine hydrochloride as substrate preincubated for 30 mins followed by substrate addition and measured for 1 hr by fluorometric method.

Assay [3] addresses Beta-secretase 1 (Homo sapiens, UniProt P56817). The assay is described as follows: Inhibition of human BACE-1 by FRET assay.
The subject of assay [4] is SH-SY5Y. The experiment in a line: Cytotoxicity against human SH-SY5Y cells assessed as reduction in cell viability at 10 uM measured after 24 hrs by MTT assay relative to control. Type of assay: functional. For orientation: Tetrazolium assays rely on reduction of a dye to a coloured formazan, in cell work by metabolically active cells.
For assay [5], the target named is T1, Acetylcholinesterase.
Assay [6] concerns the target T3, Cholinesterase (Homo sapiens, UniProt P06276). The experiment in a line: Inhibition of BChE (unknown origin).
Assay [7] concerns the target High affinity cGMP-specific 3',5'-cyclic phosphodiesterase 9A (Homo sapiens, UniProt O76083). The experiment in a line: Inhibition of PDE9A (unknown origin).
For assay [8], the target named is T1, Acetylcholinesterase. The experiment in a line: Inhibition of human AChE using acetylthiocholine iodide as substrate measured for 1 hr by Ellman's method. In general terms: In Ellman's method for cholinesterases, released thiocholine reacts with DTNB.
For assay [9], the target named is T3, Cholinesterase. The experiment in a line: Inhibition of human BChE using butyrylthiocholineiodide as substrate measured for 30 mins by Ellman's method.
Assay [10] deals with T1, Acetylcholinesterase. The experiment in a line: Inhibition of human AChE using acetylthiocholine iodide as substrate preincubated for 15 mins followed by substrate addition and measured for 30 mins by Ellman's method.
The target in assay [11] is T1, Acetylcholinesterase. The assay is described as follows: Inhibition of AChE (unknown origin) by Ellman's method.
Assay [12] has as its target cGMP-specific 3',5'-cyclic phosphodiesterase (Homo sapiens, UniProt O76074). The assay is described as follows: Inhibition of PDE5A (unknown origin) using […] as substrate measured after 1 hr by fluorescence polarization assay. Background: Fluorescence polarisation rises when a labelled molecule tumbles more slowly, as on binding a larger partner.
Assay [13] has as its target T1, Acetylcholinesterase. The assay is described as follows: Inhibition of human AChE using acetylthiocholine iodide as substrate after 15 mins by Ellman's method.
The target of assay [14] is T4, Glycogen synthase kinase-3 beta (Homo sapiens, UniProt P49841). The assay is described as follows: Inhibition of GSK3beta (unknown origin).
Assay [15] has as its target T5, Acetylcholinesterase (Electrophorus electricus, UniProt O42275). The experiment in a line: Inhibition of electric eel AChE by Ellman's method.
Assay [16] deals with T4, Glycogen synthase kinase-3 beta.
Description: Inhibition of human GSK3beta by TR-FRET analysis
Assay [17] deals with T5, Acetylcholinesterase. The assay is described as follows: Inhibition of electric eel AChE.

T1 sequence (P22303 whole entry): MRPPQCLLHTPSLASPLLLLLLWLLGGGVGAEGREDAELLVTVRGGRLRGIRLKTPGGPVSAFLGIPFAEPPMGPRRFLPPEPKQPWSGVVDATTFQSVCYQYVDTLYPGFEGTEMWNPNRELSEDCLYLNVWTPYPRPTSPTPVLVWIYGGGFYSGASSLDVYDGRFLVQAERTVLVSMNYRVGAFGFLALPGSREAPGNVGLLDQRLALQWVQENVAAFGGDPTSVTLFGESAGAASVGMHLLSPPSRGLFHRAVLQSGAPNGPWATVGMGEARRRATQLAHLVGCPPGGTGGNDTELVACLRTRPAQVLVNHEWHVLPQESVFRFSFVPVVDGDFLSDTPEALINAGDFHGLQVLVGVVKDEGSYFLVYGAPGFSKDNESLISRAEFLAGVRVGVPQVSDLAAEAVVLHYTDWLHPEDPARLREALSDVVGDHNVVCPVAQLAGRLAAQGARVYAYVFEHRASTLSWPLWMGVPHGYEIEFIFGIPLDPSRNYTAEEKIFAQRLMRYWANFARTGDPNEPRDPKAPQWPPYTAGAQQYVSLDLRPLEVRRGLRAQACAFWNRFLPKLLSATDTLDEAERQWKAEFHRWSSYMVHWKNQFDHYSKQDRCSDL
T3 sequence (P06276 whole entry): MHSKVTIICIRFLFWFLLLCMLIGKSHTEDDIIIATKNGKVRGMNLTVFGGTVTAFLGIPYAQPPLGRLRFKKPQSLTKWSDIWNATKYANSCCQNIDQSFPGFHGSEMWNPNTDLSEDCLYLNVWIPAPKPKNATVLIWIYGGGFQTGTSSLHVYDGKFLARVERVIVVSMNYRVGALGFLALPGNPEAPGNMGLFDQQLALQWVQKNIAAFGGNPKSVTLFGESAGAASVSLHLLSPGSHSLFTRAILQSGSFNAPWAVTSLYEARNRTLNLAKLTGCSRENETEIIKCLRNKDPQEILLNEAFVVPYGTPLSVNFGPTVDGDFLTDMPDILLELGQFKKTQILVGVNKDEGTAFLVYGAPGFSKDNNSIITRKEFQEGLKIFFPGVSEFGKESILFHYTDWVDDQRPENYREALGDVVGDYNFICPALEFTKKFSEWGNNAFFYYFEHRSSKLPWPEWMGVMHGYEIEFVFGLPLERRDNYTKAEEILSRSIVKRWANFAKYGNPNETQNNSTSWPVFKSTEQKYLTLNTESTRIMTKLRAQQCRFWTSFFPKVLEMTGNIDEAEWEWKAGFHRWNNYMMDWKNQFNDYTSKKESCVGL
T4 sequence (P49841 whole entry): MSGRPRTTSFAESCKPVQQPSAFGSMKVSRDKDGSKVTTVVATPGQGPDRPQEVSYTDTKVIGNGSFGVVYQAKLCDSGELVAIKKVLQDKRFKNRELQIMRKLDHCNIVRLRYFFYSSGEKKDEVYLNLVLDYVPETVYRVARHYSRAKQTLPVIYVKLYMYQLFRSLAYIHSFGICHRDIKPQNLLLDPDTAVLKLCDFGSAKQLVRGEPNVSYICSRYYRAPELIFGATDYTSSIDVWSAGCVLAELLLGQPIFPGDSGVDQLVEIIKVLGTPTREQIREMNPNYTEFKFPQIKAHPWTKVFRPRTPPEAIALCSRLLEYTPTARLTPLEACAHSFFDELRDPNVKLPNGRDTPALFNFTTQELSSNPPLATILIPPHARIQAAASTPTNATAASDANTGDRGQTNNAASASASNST
T5 sequence (O42275 whole entry): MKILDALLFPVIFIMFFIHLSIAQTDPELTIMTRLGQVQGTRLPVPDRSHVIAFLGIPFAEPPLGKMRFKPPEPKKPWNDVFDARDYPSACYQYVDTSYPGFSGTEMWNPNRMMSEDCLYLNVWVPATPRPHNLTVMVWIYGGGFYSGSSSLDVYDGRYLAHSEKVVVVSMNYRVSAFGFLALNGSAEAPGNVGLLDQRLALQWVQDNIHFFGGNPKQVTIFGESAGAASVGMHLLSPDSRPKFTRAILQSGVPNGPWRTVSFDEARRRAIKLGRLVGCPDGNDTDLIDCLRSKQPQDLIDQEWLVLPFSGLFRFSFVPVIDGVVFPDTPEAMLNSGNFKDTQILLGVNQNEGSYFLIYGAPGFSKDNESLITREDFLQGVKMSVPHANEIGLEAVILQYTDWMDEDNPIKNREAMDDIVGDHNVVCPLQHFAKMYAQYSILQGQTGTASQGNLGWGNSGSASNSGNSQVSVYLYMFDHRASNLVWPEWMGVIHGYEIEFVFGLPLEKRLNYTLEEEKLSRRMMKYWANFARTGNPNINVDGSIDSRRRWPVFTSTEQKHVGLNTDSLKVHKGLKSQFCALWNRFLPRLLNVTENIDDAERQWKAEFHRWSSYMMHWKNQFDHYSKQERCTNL
Beta-secretase 1, sequence (P56817 whole entry): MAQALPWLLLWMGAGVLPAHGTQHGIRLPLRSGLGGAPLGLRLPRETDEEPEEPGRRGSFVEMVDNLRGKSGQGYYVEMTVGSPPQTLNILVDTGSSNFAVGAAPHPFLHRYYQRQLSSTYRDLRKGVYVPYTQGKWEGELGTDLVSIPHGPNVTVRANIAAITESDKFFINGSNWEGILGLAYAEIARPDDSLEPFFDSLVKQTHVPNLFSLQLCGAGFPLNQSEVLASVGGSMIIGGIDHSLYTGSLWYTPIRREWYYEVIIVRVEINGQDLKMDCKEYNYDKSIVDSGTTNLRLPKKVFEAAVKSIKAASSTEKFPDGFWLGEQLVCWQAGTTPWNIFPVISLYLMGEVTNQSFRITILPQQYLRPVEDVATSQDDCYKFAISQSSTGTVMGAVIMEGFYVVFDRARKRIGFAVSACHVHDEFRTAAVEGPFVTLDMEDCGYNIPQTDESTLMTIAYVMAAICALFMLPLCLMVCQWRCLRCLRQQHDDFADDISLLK
High affinity cGMP-specific 3',5'-cyclic phosphodiesterase 9A, sequence (O76083 whole entry): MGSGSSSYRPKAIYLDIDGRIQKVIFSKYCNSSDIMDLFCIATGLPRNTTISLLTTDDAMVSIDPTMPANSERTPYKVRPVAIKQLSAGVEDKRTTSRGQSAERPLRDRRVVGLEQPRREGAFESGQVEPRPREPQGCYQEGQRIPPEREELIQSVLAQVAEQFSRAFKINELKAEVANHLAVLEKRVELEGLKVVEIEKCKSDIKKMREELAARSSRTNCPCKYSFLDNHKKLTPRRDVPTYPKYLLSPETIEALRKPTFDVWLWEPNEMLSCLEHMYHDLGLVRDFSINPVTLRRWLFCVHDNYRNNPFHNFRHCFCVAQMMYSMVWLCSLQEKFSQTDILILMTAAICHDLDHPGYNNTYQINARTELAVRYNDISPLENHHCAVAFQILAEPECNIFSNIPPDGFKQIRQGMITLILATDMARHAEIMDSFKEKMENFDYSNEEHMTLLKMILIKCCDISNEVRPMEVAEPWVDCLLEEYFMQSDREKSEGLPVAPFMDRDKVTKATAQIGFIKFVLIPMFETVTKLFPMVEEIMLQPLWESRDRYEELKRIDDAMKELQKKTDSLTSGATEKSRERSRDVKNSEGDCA

As a reminder, the IC50 is the point on the concentration scale where inhibition reaches its midpoint. Consider `COc1ccc(/C=C/C(=O)c2ccccc2O)cc1OC`, for which the results for the IC50 in assay [1] and in assay [2] were 28000 nM and 1410 nM, respectively.
For `c1ccc2oc(CNCCCCCCCNc3c4c(cc5ccccc35)CCCC4)cc2c1`, the figures for the IC50 in [3] and in assay [5] were 1350 nM and 0.86 nM, respectively. Moreover, the Activity in assay [4] was 63%.
As for `O=c1[nH]c(CNCCC2CCN(Cc3ccccc3)CC2)nc2c1cnn2C1CCCC1`, the IC50 in assay [1] was 290 nM; in [6], 5800 nM; in assay [7], 380 nM.
For `[O-]/[N+](=C\c1ccc2cccc(O)c2n1)Cc1ccccc1`, the IC50 was 30 nM in [8] and 1 nM in assay [9].
`O=C1/C(=C/c2ccc(O)cc2)Oc2cc(O)ccc21` had an IC50 in assay [10] of 202000 nM.
As to `O=C1[C@H]2Cc3c([nH]c4ccccc34)[C@@H](c3ccc4c(c3)OCO4)N2C(=O)CN1CCC1CCN(Cc2ccccc2)CC1`, the figures for the IC50 in [11] and in assay [12] were 30 nM and 150 nM, respectively.
Turning to `CNC(=O)c1sc(-c2ccnc(NC(=O)C3CC3)c2)nc1OC1CCN(Cc2ccccc2)CC1`, the IC50 in assay [13] turned out to be 73 nM.
On to `Cn1c(NCC(=O)c2ccccc2)nc(-c2ccncc2)cc1=O`, for which the IC50 in assay [14] stood at 5630 nM.
Take `O=CNc1nccc2c1[nH]c1cc(C(=O)NCCC3CCN(Cc4ccccc4F)CC3)ccc12`: the IC50 turned out to be 270 nM in assay [15] and 6780 nM in assay [16].
`O=C1c2c(O)cc(OCCCCCN3CCCCC3)cc2OC2C=CC=CC12` (stereo not drawn) registered an IC50 in assay [17] of 469 nM.
